One assay deals with 786-O. Put plainly: Cell line sensitivity (viability, ATPlite). It is filed as cell-based. Particulars: Homo sapiens, 786-0, Kidney, BME media, 72 hours, read-out: Sensitivity to Example 1 (IC50). The protocol:
(§1) Viability effect of Example 1 against a subset of lung carcinoma cell lines was determined as follows. Cells were seeded at 1500 cells per well in 384-well plates in BME media, and compound was added in 0.1% DMSO 18 hours later. Viability was determined by ATPlite assay after 72 hours. (See FIG. 4C).
(§2) Example 1 was tested against an expanded panel of cell lines according to the above procedure.
Background: ATP-based viability assays read luminescence as a measure of living cells.

The next assay deals with A549. Put plainly: Cell line sensitivity (viability, ATPlite). Format: cell-based. Particulars: Homo sapiens; A549, Lung; BME media, 72 hours; read-out: Sensitivity to Example 1 (IC50). The protocol: as §1, §2
Another assay concerns ACHN. The assay can be described thus: Cell line sensitivity (viability, ATPlite). It is filed as cell-based. The settings on record: Homo sapiens, Kidney, BME media, 72 hours, read-out: Sensitivity to Example 1 (IC50). The method, then: as §1, §2
In a further assay the test system is AsPC1. The assay can be described thus: Cell line sensitivity (viability, ATPlite). It is filed as cell-based. The settings on record: Homo sapiens; AsPC1, Pancreatic; BME media, 72 hours; read-out: Sensitivity to Example 1 (IC50). The protocol: as §1, §2
The subject of another assay is Capan1. The assay can be described thus: Cell line sensitivity (viability, ATPlite). It is filed as cell-based. Particulars: Homo sapiens, CAPAN-1; Capan1, Pancreatic; BME media, 72 hours; read-out: Sensitivity to Example 1 (IC50). The method, then:
as §1, §2

The next assay has as its system Capan2. Put plainly: Cell line sensitivity (viability, ATPlite). Format: cell-based. The settings on record: Homo sapiens, Capan-2; Capan2, Pancreatic; BME media, 72 hours; read-out: Sensitivity to Example 1 (IC50). The protocol: as §1, §2
In the next assay the test system is Detroit562. The assay can be described thus: Cell line sensitivity (viability, ATPlite). Particulars: Homo sapiens, Detroit 562; Detroit562, Head/Neck; BME media, 72 hours; read-out: Sensitivity to Example 1 (IC50). Format: cell-based. The method, then: as §1, §2
The test system of a further assay is Du145. Put plainly: Cell line sensitivity (viability, ATPlite). It is filed as cell-based. Particulars: Homo sapiens, DU-145; Du145, Prostate; BME media, 72 hours; read-out: Sensitivity to Example 1 (IC50). The protocol:
as §1, §2

The next assay relates to H1299. Put plainly: Cell line sensitivity (viability, ATPlite). It is filed as cell-based. Particulars: Homo sapiens, NCI-H1299; H1299, Lung; BME media, 72 hours; read-out: Sensitivity to Example 1 (IC50). The protocol:
as §1, §2

For the next assay, the system named is HT1080. Put plainly: Cell line sensitivity (viability, ATPlite). The settings on record: Homo sapiens, HT-1080; HT1080, Sarcoma; BME media, 72 hours; read-out: Sensitivity to Example 1 (IC50). It is filed as cell-based. The protocol: as §1, §2
The next assay concerns HepG2. The assay can be described thus: Cell line sensitivity (viability, ATPlite). Format: cell-based. The settings on record: Homo sapiens; HepG2, Liver; BME media, 72 hours; read-out: Sensitivity to Example 1 (IC50). The protocol:
as §1, §2

In another assay the test system is Hs766T. The assay can be described thus: Cell line sensitivity (viability, ATPlite). The settings on record: Pancreatic, BME media, 72 hours, read-out: Sensitivity to Example 1 (IC50). It is filed as cell-based. The method, then:
as §1, §2

In a further assay the test system is Ls174T. The assay can be described thus: Cell line sensitivity (viability, ATPlite). It is filed as cell-based. The settings on record: Homo sapiens, Colon, BME media, 72 hours, read-out: Sensitivity to Example 1 (IC50). The method, then:
as §1, §2

The subject of another assay is MDA-MB453. The assay can be described thus: Cell line sensitivity (viability, ATPlite). It is filed as cell-based. The settings on record: Homo sapiens, MDA-MB-453; MDA-MB453, Breast; BME media, 72 hours; read-out: Sensitivity to Example 1 (IC50). The protocol:
as §1, §2

The next assay relates to MDA-MB468. Put plainly: Cell line sensitivity (viability, ATPlite). Format: cell-based. Particulars: Homo sapiens, MDA-MB-468; MDA-MB468, Breast; BME media, 72 hours; read-out: Sensitivity to Example 1 (IC50). The protocol:
as §1, §2

In a further assay the test system is MiaPaCa2. Put plainly: Cell line sensitivity (viability, ATPlite). It is filed as cell-based. Particulars: Homo sapiens, MIA PaCa-2; MiaPaCa2, Pancreatic; BME media, 72 hours; read-out: Sensitivity to Example 1 (IC50). The method, then: as §1, §2
A further assay relates to NCI-H1975. Put plainly: Cell line sensitivity (viability, ATPlite). It is filed as cell-based. The settings on record: Homo sapiens; NCI-H1975, Lung; BME media, 72 hours; read-out: Sensitivity to Example 1 (IC50). The method, then: as §1, §2
The subject of the next assay is NCI-H460. The assay can be described thus: Cell line sensitivity (viability, ATPlite). Format: cell-based. Particulars: Homo sapiens; NCI-H460, Lung; BME media, 72 hours; read-out: Sensitivity to Example 1 (IC50). The protocol:
as §1, §2

A further assay relates to NCI-H647. The assay can be described thus: Cell line sensitivity (viability, ATPlite). It is filed as cell-based. Particulars: Homo sapiens; NCI-H647, Lung; BME media, 72 hours; read-out: Sensitivity to Example 1 (IC50). The method, then:
as §1, §2

The next assay has as its system PC3. The assay can be described thus: Cell line sensitivity (viability, ATPlite). It is filed as cell-based. Particulars: Homo sapiens, PC-3; PC3, Prostate; BME media, 72 hours; read-out: Sensitivity to Example 1 (IC50). The method, then: as §1, §2
The subject of the next assay is Panc-1. Put plainly: Cell line sensitivity (viability, ATPlite). It is filed as cell-based. The settings on record: Homo sapiens; Panc-1, Pancreatic; BME media, 72 hours; read-out: Sensitivity to Example 1 (IC50). The method, then: as §1, §2
In the next assay the test system is SW480. The assay can be described thus: Cell line sensitivity (viability, ATPlite). It is filed as cell-based. Particulars: Homo sapiens; SW480, Colon; BME media, 72 hours; read-out: Sensitivity to Example 1 (IC50). The protocol:
as §1, §2

The subject of another assay is SW48. Put plainly: Cell line sensitivity (viability, ATPlite). Particulars: Homo sapiens; SW48, Colon; BME media, 72 hours; read-out: Sensitivity to Example 1 (IC50). It is filed as cell-based. The method, then:
as §1, §2

The target in a further assay is PKM2 (Homo sapiens, UniProt P14618). Put plainly: Cell-Based Pyruvate Kinase Activity Assay, A549. Also noted: host or cells: A549 or NCI-H1299 lung cancer cells. Particulars: A549, 30 minutes with compound, n = 4; read-out: Cellular PKM2 activation EC50. The method, then:
Cell-Based Pyruvate Kinase Activity Assay
A549 or NCI-H1299 lung cancer cells were plated at 20,000 cells per well (96-well plate) in MEM media plus 10% FBS, with no additional glutamine or pyruvate. Following overnight incubation, cells were washed with PBS followed by 4 hour incubation in MEM media. Compounds were added to the cells in 1% final concentration DMSO. After 30 minutes, cells were lysed, and pyruvate kinase activity in lysates was determined by Pyruvate Kinase Activity Assay (BioVision, Milpitas, Calif.). Maximum velocity values were calculated from the kinetic data, and AC50 values were determined using Prism GraphPad Software (La Jolla, Calif.). Compound washout experiments were as described above, except after a 30 minute incubation with Example 244 (469 nM), the cells were washed with PBS followed by the addition of MEM media for the indicated time period, lysed and pyruvate kinase activity determined. Results are tabulated in Table 3 and presented graphically in FIGS. 6A and 6B.

PKM2, sequence (P14618 2-531 limits assumed): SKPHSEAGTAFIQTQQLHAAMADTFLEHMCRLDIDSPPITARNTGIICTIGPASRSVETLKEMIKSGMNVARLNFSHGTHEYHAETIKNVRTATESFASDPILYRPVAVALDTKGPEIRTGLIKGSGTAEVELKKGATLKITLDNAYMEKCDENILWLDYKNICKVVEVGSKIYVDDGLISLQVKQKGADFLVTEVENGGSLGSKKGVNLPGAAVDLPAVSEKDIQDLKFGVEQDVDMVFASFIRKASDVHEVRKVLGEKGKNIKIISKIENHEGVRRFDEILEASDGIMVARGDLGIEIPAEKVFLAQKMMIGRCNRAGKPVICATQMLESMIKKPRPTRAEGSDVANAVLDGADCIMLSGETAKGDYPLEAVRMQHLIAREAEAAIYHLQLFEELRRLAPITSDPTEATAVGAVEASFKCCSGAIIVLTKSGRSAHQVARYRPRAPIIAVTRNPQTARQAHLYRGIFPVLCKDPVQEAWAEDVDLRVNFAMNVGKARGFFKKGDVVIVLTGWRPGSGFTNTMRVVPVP

By IC50 is commonly meant the midpoint of a concentration-inhibition curve. A word on the EC50: it is the midpoint of the concentration-response curve. In the case of `O=C(c1cc(C(F)(F)F)n[nH]1)N(Cc1ccc(O)cc1F)CC1CCC1` [Example 1, N-(cyclobutylmethyl)-N-(2-fluoro-4-hydroxybenzyl)-3-(trifluoromethyl)-1H-pyrazole-5-carboxamide], the IC50 in the assay with 786-O is more than 30 µM; with A549 it was 0.1 µM; in the assay on ACHN, 0.1 µM; in the assay with AsPC1, more than 30 µM; in the assay on Capan1, more than 30 µM; in the assay with Capan2, more than 30 µM. Also, the IC50 in the assay on Detroit562 was 3 µM; with Du145 it was more than 30 µM; with H1299, 0.6 µM; in the assay with HT1080, 0.05 µM; with HepG2, more than 30 µM; in the assay with Hs766T it was 0.3 µM. Further, the IC50 with Ls174T is more than 30 µM; in the assay with MDA-MB453 it was more than 30 µM; in the assay on MDA-MB468, more than 30 µM; in the assay with MiaPaCa2 it was 0.2 µM; in the assay on NCI-H1975, 0.09 µM; in the assay on NCI-H460 it was 5 µM. In addition, the IC50 with NCI-H647 was more than 30 µM; in the assay on PC3 it was 0.1 µM; in the assay with Panc-1 it was 0.014 µM; with SW480, 0.1 µM; in the assay on SW48, more than 30 µM. On PKM2, the EC50 amounted to 0.26 ± 0.12 µM.
